Laboratory results published in patent US11661419B2, “Benzimidazole derivative compounds and uses thereof” (Pfizer Inc., priority 2019, dated 2023).

Experiments:
[1] = test system: IL-2 in activated CD4+ human T-cells; assay: IL-2 inhibition in supernatants from activated CD4+ human T-cells (cisbio HTRF); format: cell-based; settings: T-cell; geometric mean of count n; CD3/CD28-expanded human CD4+ T cells stimulated with ImmunoCult, 20 to 24 hrs
Procedure, shortened: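 Expanded human CD4+ T cells (30,000 cells/well) were pre-incubated with compound for 15 min, then stimulated with ImmunoCult (1:50 final) for 20 to 24 hrs at 37° C.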

[2] = molecular target: Tropomyosin receptor kinase A (TRKA, NTRK1) (Homo sapiens (Human), UniProt P04629); assay: TRKA (NTRK1) enzyme Z'-LYTE assay; format: biochemical; settings: arithmetic mean of count n; test compound 1 uM, ATP 1 mM
Sequence of Tropomyosin receptor kinase A (TRKA, NTRK1) (P04629 33-796): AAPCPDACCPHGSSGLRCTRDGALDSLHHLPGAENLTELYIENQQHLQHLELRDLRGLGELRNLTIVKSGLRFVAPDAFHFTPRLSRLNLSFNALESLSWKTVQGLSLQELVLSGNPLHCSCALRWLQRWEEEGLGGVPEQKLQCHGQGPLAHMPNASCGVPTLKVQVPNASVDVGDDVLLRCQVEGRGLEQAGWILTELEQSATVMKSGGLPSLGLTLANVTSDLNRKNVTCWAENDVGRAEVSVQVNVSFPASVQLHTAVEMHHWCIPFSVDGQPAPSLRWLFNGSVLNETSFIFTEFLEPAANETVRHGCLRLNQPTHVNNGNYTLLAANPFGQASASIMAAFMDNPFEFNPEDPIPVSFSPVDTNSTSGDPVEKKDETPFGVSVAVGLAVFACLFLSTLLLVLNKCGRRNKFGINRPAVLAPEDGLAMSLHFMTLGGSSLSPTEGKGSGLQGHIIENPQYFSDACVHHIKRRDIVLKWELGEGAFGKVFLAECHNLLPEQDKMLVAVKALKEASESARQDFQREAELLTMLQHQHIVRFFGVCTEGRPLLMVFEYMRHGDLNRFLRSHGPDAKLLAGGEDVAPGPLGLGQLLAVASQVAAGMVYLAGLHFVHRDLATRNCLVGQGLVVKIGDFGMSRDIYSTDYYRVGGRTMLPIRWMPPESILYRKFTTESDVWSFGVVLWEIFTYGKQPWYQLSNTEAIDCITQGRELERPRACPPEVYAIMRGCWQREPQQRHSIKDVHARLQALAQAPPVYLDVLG
Procedure, shortened: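 Recombinant human NTRK1 kinase activity read in a fluorescence-based coupled-enzyme Z'-LYTE format in the presence of test compound. Signal compared with assay controls to express % inhibition.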

IC50 [1] [nM]	inhibition at 1 µM [2] [%]	SMILES
274	109	Cc1cc2[nH]c(-c3n[nH]c4c3C[C@@H]3C[C@]3(C)C4)nc2cc1NC(=O)[C@H](C)N1CCOCC1 [Example 52, (S)—N-(6-methyl-2-((4aS,5aR)-5a-methyl-1,4,4a,5,5a,6-hexahydrocyclopropa[f]indazol-3-yl)-1H-benzo[d]imidazol-5-yl)-2-morpholinopropanamide]
41	89	C[C@@H](C(=O)N(C)c1cc(C#N)c2[nH]c(-c3n[nH]c4c3C[C@@H]3C[C@]3(C)C4)nc2c1)C1CCOCC1 [Example 55, (R)—N-(7-cyano-2-((4aS,5aR)-5a-methyl-1,4,4a,5,5a,6-hexahydrocyclopropa[f]indazol-3-yl)-1H-benzo[d]imidazol-5-yl)-N-methyl-2-(tetrahydro-2H-pyran-4-yl)propanamide]
